Here are results for 1 molecule from patent publication US11208671B2, “Recombinant cell and method of producing itaconic acid” (City University of Hong Kong, priority 2019, dated 2021).

This assay deals with Methylorubrum extorquens AM1. Kind of assay: Tolerance of the strain to the inhibitory effect of itaconic acid. The assay is classed as cell-based. The note with it: itaconic acid 10 mM.

Take `C=C(CC(=O)O)C(=O)O` [itaconic acid]: the “Tolerance to inhibitory effect of itaconic acid” value was “highly tolerant”.
